Assay results as given in PubChem BioAssay AID248 (DTP/NCI, 2004).
Toxic doses and inconclusive results are not listed. Rule as the data show it: active = T/C of 150% or more; inactive = T/C below 125%.

System: L1210 leukemia ip in BDF1 mice, survival T/C
Experiment: NCI In Vivo Anticancer Drug Screen. Data for tumor model L1210 Leukemia (intraperitoneal) in B6D2F1 (BDF1) mice
Conditions: endpoint: mean survival time, higher = longer survival
Procedure, shortened: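 Mice bearing the transplanted tumor received compound or vehicle. Survival of the treated group was divided by that of the vehicle-treated control group to give the ratio.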

[1] = dose: 50.0 mg/kg/injection, schedule: Q01DX001 (ip), vehicle: saline
[2] = dose: 100.0 mg/kg/injection, schedule: Q01DX001 (ip), vehicle: saline
[3] = dose: 200.0 mg/kg/injection, schedule: Q01DX001 (ip), vehicle: saline
[4] = dose: 5.0 mg/kg/injection, schedule: Q01DX001 (ip), vehicle: saline
[5] = dose: 10.0 mg/kg/injection, schedule: Q01DX001 (ip), vehicle: saline
[6] = dose: 20.0 mg/kg/injection, schedule: Q01DX001 (ip), vehicle: saline
[7] = dose: 40.0 mg/kg/injection, schedule: Q01DX001 (ip), vehicle: saline
[8] = dose: 80.0 mg/kg/injection, schedule: Q01DX001 (ip), vehicle: saline
[9] = dose: 100.0 mg/kg/injection, schedule: Q01DX009 (ip), vehicle: Klucel (hydroxypropylcellulose) (HPC)
[10] = dose: 100.0 mg/kg/injection, schedule: Q01DX009 (ip), vehicle: saline with Tween-80
[11] = dose: 100.0 mg/kg/injection, schedule: Q04DX003 (ip), vehicle: saline with Tween-80
[12] = dose: 200.0 mg/kg/injection, schedule: Q01DX009 (ip), vehicle: saline with Tween-80
[13] = dose: 200.0 mg/kg/injection, schedule: Q04DX003 (ip), vehicle: saline with Tween-80
[14] = dose: 400.0 mg/kg/injection, schedule: Q01DX009 (ip), vehicle: saline with Tween-80
[15] = dose: 400.0 mg/kg/injection, schedule: Q04DX003 (ip), vehicle: saline with Tween-80
[16] = dose: 100.0 mg/kg/injection, schedule: Q01DX009 (ip), vehicle: saline
[17] = dose: 200.0 mg/kg/injection, schedule: Q01DX009 (ip), vehicle: saline
[18] = dose: 100.0 mg/kg/injection, schedule: Q04DX002 (ip), vehicle: Klucel (hydroxypropylcellulose) (HPC)
[19] = dose: 200.0 mg/kg/injection, schedule: Q04DX002 (ip), vehicle: Klucel (hydroxypropylcellulose) (HPC)
[20] = dose: 400.0 mg/kg/injection, schedule: Q04DX002 (ip), vehicle: Klucel (hydroxypropylcellulose) (HPC)
[21] = dose: 400.0 mg/kg/injection, schedule: Q01DX001 (ip), vehicle: saline
[22] = dose: 100.0 mg/kg/injection, schedule: Q04DX003 (ip), vehicle: Klucel (hydroxypropylcellulose) (HPC)
[23] = dose: 200.0 mg/kg/injection, schedule: Q04DX003 (ip), vehicle: Klucel (hydroxypropylcellulose) (HPC)
[24] = dose: 400.0 mg/kg/injection, schedule: Q04DX003 (ip), vehicle: Klucel (hydroxypropylcellulose) (HPC)
[25] = dose: 25.0 mg/kg/injection, schedule: Q01DX009 (ip), vehicle: Klucel (hydroxypropylcellulose) (HPC)
[26] = dose: 100.0 mg/kg/injection, schedule: Q04DX003 (ip), vehicle: saline
[27] = dose: 200.0 mg/kg/injection, schedule: Q04DX003 (ip), vehicle: saline
[28] = dose: 400.0 mg/kg/injection, schedule: Q04DX003 (ip), vehicle: saline

Measured: T/C

CN1c2ccccc2C=C(C(=O)c2ccccc2)C1c1ccccc1 (stereo not given)
inactive: [1] 100 % of control | [2] 102 % of control | [3] 97 % of control

CC1(CCCOc2ccc(N)cc2)N=C(N)N=C(N)N1c1ccccc1 (stereo not given)
inactive: [4] 96 % of control | [5] 96 % of control | [6] 92 % of control | [7] 92 % of control | [8] 90 % of control

O=C1c2cccc3cccc(c23)C(=O)N1CCc1ccccn1
inactive: [9] 91 % of control | dose: 200.0 mg/kg/injection, schedule: Q01DX009 (ip), vehicle: Klucel (hydroxypropylcellulose) (HPC) 92 % of control

O=C(/C=C/c1c(Cl)cccc1Cl)c1ccc(Cl)cc1
inactive: [10] 98 % of control | [11] 90 % of control | [12] 95 % of control | [13] 90 % of control | [14] 90 % of control | [15] 91 % of control

C=C(C)C(N)=O
inactive: [16] 102 % of control | [17] 94 % of control

Cc1cccc(C)c1NC(=S)Nc1ccccc1
inactive: [18] 101 % of control | [19] 105 % of control | [20] 90 % of control

CC(C)CCCC(C)C1CCC2C3CC=C4CC(OC(=O)CCl)CCC4(C)C3CCC12C (stereo not given)
inactive: [1] 101 % of control | [2] 95 % of control | [3] 95 % of control | [21] 101 % of control

O=C(NCCBr)Nc1ccc2c(c1)CCCC2
inactive: [22] 102 % of control | [23] 93 % of control | [24] 93 % of control

Nc1ncnc2nc(CO)[nH]c12
inactive: [18] 92 % of control | [19] 100 % of control | [20] 95 % of control

O=C(Cl)C(c1ccccc1)C1(C(Cl)(Cl)Cl)CCCCC1 (stereo not given)
inactive: dose: 55.0 mg/kg/injection, schedule: Q01DX Z (ip), vehicle: methylcellulose (MC) 110 % of control | dose: 83.0 mg/kg/injection, schedule: Q01DX Z (ip), vehicle: methylcellulose (MC) 104 % of control | dose: 125.0 mg/kg/injection, schedule: Q01DX Z (ip), vehicle: methylcellulose (MC) 98 % of control

O=C(CBr)c1ccc(-c2ccccc2)cc1
inactive: dose: 6.0 mg/kg/injection, schedule: Q01DX009 (ip), vehicle: Klucel (hydroxypropylcellulose) (HPC) 100 % of control | dose: 12.0 mg/kg/injection, schedule: Q01DX009 (ip), vehicle: Klucel (hydroxypropylcellulose) (HPC) 96 % of control | [25] 98 % of control | [22] 98 % of control | [23] 102 % of control

Cc1cc(C)c([I+]c2ccccc2C(=O)[O-])c(C)c1
inactive: [1] 97 % of control | [2] 105 % of control | [3] 100 % of control | [21] 103 % of control

CCOP(=O)(OCC)O/N=C(/C#N)c1ccccc1
inactive: dose: 75.0 mg/kg/injection, schedule: Q01DX001 (ip), vehicle: saline 91 % of control

CC(C)CCCC(=O)O
inactive: [2] 97 % of control | [3] 100 % of control | [21] 89 % of control

CN(C)Cc1cc(C(C)(C)C)c(O)c(C(C)(C)C)c1
inactive: dose: 25.0 mg/kg/injection, schedule: Q01DX009 (ip), vehicle: saline with Tween-80 112 % of control | dose: 50.0 mg/kg/injection, schedule: Q01DX009 (ip), vehicle: saline with Tween-80 98 % of control | [10] 94 % of control | [11] 95 % of control

Nc1nc2c(ncn2-c2cccc(Cl)c2)c(=O)[nH]1
inactive: [11] 95 % of control | [13] 91 % of control

CCCCCCCCCCc1cc2c([nH]1)C(=O)c1ccccc1C2=O
inactive: dose: 37.5 mg/kg/injection, schedule: Q01DX001 (ip), vehicle: Klucel (hydroxypropylcellulose) (HPC) 86 % of control | dose: 75.0 mg/kg/injection, schedule: Q01DX001 (ip), vehicle: Klucel (hydroxypropylcellulose) (HPC) 89 % of control

C=CCNC(=S)N/N=C\c1cc(OC)c(OC)c(OC)c1
inactive: [11] 96 % of control | [13] 94 % of control | [15] 98 % of control

CCN(CC)CCSSCCN(CC)CC
inactive: [1] 88 % of control | [2] 96 % of control

OCCCN=Cc1ccccc1O.[Co]
inactive: [4] 100 % of control | [5] 94 % of control | [6] 100 % of control | [7] 102 % of control | [8] 105 % of control

Cc1cccc2c1N=C(C(F)(F)F)CC2=O
inactive: dose: 75.0 mg/kg/injection, schedule: Q01DX001 (ip), vehicle: other 100 % of control | dose: 150.0 mg/kg/injection, schedule: Q01DX001 (ip), vehicle: other 96 % of control | dose: 300.0 mg/kg/injection, schedule: Q01DX001 (ip), vehicle: other 97 % of control

N#CCC1CC=CCC1 (stereo not given)
inactive: dose: 100.0 mg/kg/injection, schedule: Q01DX001 (ip), vehicle: carboxymethylcellulose (CMC) 98 % of control | dose: 200.0 mg/kg/injection, schedule: Q01DX001 (ip), vehicle: carboxymethylcellulose (CMC) 98 % of control | dose: 400.0 mg/kg/injection, schedule: Q01DX001 (ip), vehicle: carboxymethylcellulose (CMC) 104 % of control

CCP(CC)c1ccccc1
inactive: dose: 100.0 mg/kg/injection, schedule: Q01DX009 (sc), vehicle: olive oil, sesame oil, peanut oil 100 % of control | dose: 100.0 mg/kg/injection, schedule: Q04DX003 (sc), vehicle: olive oil, sesame oil, peanut oil 98 % of control | dose: 200.0 mg/kg/injection, schedule: Q01DX009 (sc), vehicle: olive oil, sesame oil, peanut oil 102 % of control | dose: 200.0 mg/kg/injection, schedule: Q04DX003 (sc), vehicle: olive oil, sesame oil, peanut oil 96 % of control | dose: 400.0 mg/kg/injection, schedule: Q01DX009 (sc), vehicle: olive oil, sesame oil, peanut oil 107 % of control | dose: 400.0 mg/kg/injection, schedule: Q04DX003 (sc), vehicle: olive oil, sesame oil, peanut oil 98 % of control

O=[N+]([O-])c1csc2ccccc12
inactive: dose: 12.5 mg/kg/injection, schedule: Q01DX009 (ip), vehicle: Klucel (hydroxypropylcellulose) (HPC) 97 % of control | [25] 90 % of control | dose: 50.0 mg/kg/injection, schedule: Q01DX009 (ip), vehicle: Klucel (hydroxypropylcellulose) (HPC) 90 % of control | [9] 105 % of control

O=C(Nc1c(Br)cc2c(c1Br)Cc1cc(Br)ccc1-2)C(F)(F)F
inactive: [2] 94 % of control | [3] 101 % of control | [21] 106 % of control

O=C(N/N=C/c1ccccc1O)C(O)C(O)C(O)C(O)CO (stereo not given)
inactive: dose: 100.0 mg/kg/injection, schedule: Q04DX002 (ip), vehicle: saline with Tween-80 92 % of control | dose: 200.0 mg/kg/injection, schedule: Q04DX002 (ip), vehicle: saline with Tween-80 106 % of control | dose: 400.0 mg/kg/injection, schedule: Q04DX002 (ip), vehicle: saline with Tween-80 95 % of control

CCCCCCC(=O)CCCC
inactive: [10] 102 % of control | [26] 98 % of control | [12] 111 % of control | [27] 88 % of control | [14] 98 % of control | [28] 94 % of control

Cc1cc(C)c(S(=O)(=O)O)c(Cc2ccc3ccccc3c2)c1
inactive: [2] 94 % of control

NNC(=O)CCN1CC1
inactive: [22] 109 % of control | [23] 107 % of control | [24] 115 % of control

COC(=O)C(C)CSCc1ccccc1 (stereo not given)
inactive: dose: 100.0 mg/kg/injection, schedule: Q04DX002 (ip), vehicle: saline 108 % of control | dose: 400.0 mg/kg/injection, schedule: Q04DX002 (ip), vehicle: saline 89 % of control

O=c1cc(CO)[nH]nc1CO
inactive: [16] 97 % of control | [26] 101 % of control | [17] 97 % of control | [27] 106 % of control | dose: 400.0 mg/kg/injection, schedule: Q01DX009 (ip), vehicle: saline 97 % of control | [28] 103 % of control
